Data taken from PubChem BioAssay (NCI).
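Dose response: 5 concentrations. Exposure: 48 h. Format: 96-well plates. Endpoint: linear interpolation; highest concentration if not reached. GI50 = concentration required for 50% inhibition of growth. TGI: total growth inhibition.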 The source made the active and inactive calls. Rule as the data show it: active = GI50 below about 0.43 µM; inactive = the rest.

What was measured:
Test in all cases: inhibition of tumour cell growth, NCI panel, 48 h
[1] = test system: RXF-631 renal
[2] = test system: SW-620 colon
[3] = test system: DU-145 prostate
[4] = test system: HCT-116 colon
[5] = test system: MCF7 breast
[6] = test system: COLO 205 colon
[7] = test system: A549 NSCLC
[8] = test system: RPMI-8226 leukemia
[9] = test system: EKVX NSCLC
[10] = test system: A498 renal
[11] = test system: K-562 leukemia
[12] = test system: RXF 393 renal
[13] = test system: KM20L2 colon
[14] = test system: SF-539 CNS
[15] = test system: LOX IMVI melanoma
[16] = test system: NCI-H226 lung
[17] = test system: NCI-H522 lung
[18] = test system: XF 498 CNS

C[CH2][Sn]([CH2]C)([O]C(=O)c1ccccc1F)[O]C(=O)c1ccccc1F
35.5 µM: TGI [10]
29.4 µM: TGI [14]
22.1 µM: TGI [16]
45.7 µM: TGI [8]
30.6 µM: TGI [18]
6.84 µM: TGI [17]
73.7 µM: TGI [2]
inactive: GI50 [1] 18.6 µM | GI50 [2] 28.3 µM | GI50 [3] > 100 µM | GI50 [4] > 69.8 µM | GI50 [5] 27.4 µM | GI50 [6] 38.8 µM | GI50 [7] > 100 µM | GI50 [8] 17.2 µM | GI50 [9] > 100 µM | GI50 [10] 18.5 µM | GI50 [11] 16.2 µM | GI50 [12] 15.4 µM | GI50 [13] > 83.8 µM | GI50 [14] 23.2 µM | GI50 [15] 19.2 µM | GI50 [16] 14.7 µM | GI50 [17] 2.1 µM | GI50 [18] 15.9 µM
80.6 µM: TGI [5]
40.8 µM: TGI [15]
> 100 µM: TGI [3] | TGI [4] | TGI [7] | TGI [9] | TGI [13]
62.3 µM: TGI [6]
35.4 µM: TGI [12]
55.1 µM: TGI [11]
34.1 µM: TGI [1]

C=CC(=O)C#CC#CC/C=C\CCCCCCC
> 20.6 µM: TGI [2] | TGI [3] | TGI [4] | TGI [5] | TGI [6] | TGI [7] | TGI [9] | TGI [10] | TGI [11] | TGI [13] | TGI [14] | TGI [15] | TGI [16] | TGI [17]
> 18.6 µM: TGI [8]
> 19.5 µM: TGI [12]
inactive: outcome [2] | outcome [3] | outcome [4] | outcome [5] | outcome [6] | outcome [7] | outcome [8] | outcome [9] | outcome [10] | outcome [11] | outcome [12] | outcome [14] | outcome [15] | outcome [16] | outcome [17]
